Laboratory results from patent publication EP4563146A1 (IRBM S.P.A., priority 2023, dated 2025).

The molecules below were run on ZIKV replicon (assay: ZIKV replication inhibition assay (NanoLuc replicon in Vero cells)). Settings: Zika virus, Vero, 72 h, read-out: ZIKA Cell_Nanoluc.

| Compound | EC50 [µM] |
| --- | --- |
| N[C@H]1CC[C@@H](C[n+]2cc([N-]C(=O)Nc3cc(N4CCC(c5ccccc5)C4=O)cc(C(F)(F)F)c3)on2)CC1 (stereo partly drawn) [Example 131, (3-(((1S,4S)-4-Aminocyclohexyl)methyl)-1,2,3-oxadiazol-3-ium-5-yl)((3-(2-oxo-3-phenylpyrrolidin-1-yl)-5-(trifluoromethyl)-phenyl)carbamoyl)amide] | 1 to 20 |
| Cn1ccc(CC(=O)Nc2cc(NC(=O)[N-]c3c[n+](Cc4ccccn4)no3)cc(C(F)(F)F)c2)n1 [Example 40] | 1 to 20 |
| Cc1cccc2c1OCC2C(=O)Nc1cc(NC(=O)[N-]c2c[n+](Cc3ccccn3)no2)cc(C(F)(F)F)c1 (centres unmarked) [Example 67] | 1 to 20 |
| O=C([N-]c1c[n+](Cc2ccccn2)no1)Nc1cc(NC(=O)[C@H]2C[C@](O)(c3ccccn3)C2)cc(C(F)(F)F)c1 [Example 69] | > 20 |
| Cc1oc(-c2ccccc2)nc1CC(=O)Nc1cc(NC(=O)[N-]c2c[n+](Cc3ccccn3)no2)cc(C(F)(F)F)c1 [Example 33] | 1 to 20 |
| NC[C@H]1CC[C@@H](C[n+]2cc([N-]C(=O)Nc3cc(N4CCC(c5ccccc5)C4=O)cc(C(F)(F)F)c3)on2)CC1 (stereo partly drawn) [Example 133, (3-(((1S,4S)-4-(Aminomethyl)cyclohexyl)-methyl)-1,2,3-oxadiazol-3-ium-5-yl)((3-(2-oxo-3-phenylpyrrolidin-1-yl)-5-(trifluoromethyl)-phenyl)carbamoyl)amide] | 1 to 20 |
| O=C([N-]c1c[n+](Cc2ccccn2)no1)Nc1cc(NC(=O)C2CC(F)(F)C23CCC3)cc(C(F)(F)F)c1 (centres unmarked) [Example 85] | 1 to 20 |
| O=C([N-]c1c[n+](Cc2ccccn2)no1)Nc1cc(NC(=O)c2cc3n(n2)CCS(=O)(=O)C3)cc(C(F)(F)F)c1 [Example 64] | > 20 |
| CC(C(=O)Nc1cc(NC(=O)[N-]c2c[n+](Cc3ccccn3)no2)cc(C(F)(F)F)c1)c1ccccc1 (centres unmarked) [Example 32] | 0.1 to 1 |
| O=C([N-]c1c[n+](Cc2ccccn2)no1)Nc1cc(NC(=O)C(F)(F)CN2CCCC2)cc(C(F)(F)F)c1 [Example 76] | > 20 |
| CN(CC(F)(F)F)[C@H]1CC[C@H](C[n+]2cc([N-]C(=O)Nc3cc(N4CC[C@H](c5ccccc5)C4=O)cc(C(F)(F)F)c3)on2)CC1 [Example 146, (3-(((1R,4R)-4-(Methyl(2,2,2-trifluoroethyl)-amino)cyclohexyl)methyl)-1,2,3-oxadiazol-3-ium-5-yl)((3-((R)-2-oxo-3-phenylpyrrolidin-1-yl)-5-(trifluoromethyl)phenyl)carbamoyl)amide] | 0.1 to 1 |
| O=C([N-]c1c[n+](Cc2ccccn2)no1)Nc1cc(NC(=O)C2CC2c2ccccc2)cc(C(F)(F)F)c1 (centres unmarked) [Example 50] | 0.1 to 1 |
| O=C([N-]c1c[n+](Cc2ccccn2)no1)Nc1cc(NC(=O)c2cncn2C2CC2)cc(C(F)(F)F)c1 [Example 75] | > 20 |
| O=C(CS(=O)(=O)c1ccccc1)Nc1cc(NC(=O)[N-]c2c[n+](Cc3ccccn3)no2)cc(C(F)(F)F)c1 [Example 43] | 1 to 20 |
| O=C([N-]c1c[n+](Cc2ccccn2)no1)Nc1cc(NC(=O)c2ccnn2-c2ccccc2)cc(C(F)(F)F)c1 [Example 34] | 1 to 20 |
| O=C(Cc1ccccc1)Nc1cc(NC(=O)[N-]c2c[n+](CC3CCNCC3)no2)cc(C(F)(F)F)c1 [Example 120] | > 20 |

Same assay, conditions: Zika virus, Vero, 72 h, read-out: ZIKA Cell_Nanoluc, Vero cells with stable ZIKV replicon, 72 h, Nano-Glo readout

| Compound | EC50 [µM] |
| --- | --- |
| C[C@@H]1C[C@H]1c1cc(NC(=O)Cc2ccccc2)cc(NC(=O)[N-]c2c[n+](Cc3ccccn3)no2)c1 [Example 130, ((3-((1R,2R)-2-Methylcyclopropyl)-5-(2-phenylacetamido)phenyl)-carbamoyl)(3-(pyridin-2-ylmethyl)-1,2,3-oxadiazol-3-ium-5-yl)amide] | 1 to 20 |
| COc1ncc(-c2ccc(C[n+]3cc([N-]C(=O)Nc4cc(NC(=O)Cc5ccccc5)cc(C(F)(F)F)c4)on3)nc2)c(C)n1 [Example 13, (3-((5-(2-Methoxy-4-methylpyrimidin-5-yl)pyridin-2-yl)methyl)-1,2,3-oxadiazol-3-ium-5-yl)((3-(2-phenylacetamido)-5-(trifluoromethyl)phenyl)carbamoyl)amide] | 0.1 to 1 |
| O=C(Cc1ccccc1)Nc1cc(NC(=O)[N-]c2c[n+](CC3CC(NCc4ccc(O)cn4)C3)no2)cc(C(F)(F)F)c1 (centres unmarked) [Example 134, (3-((3-(((5-Hydroxypyridin-2-yl)methyl)amino)-cyclobutyl)methyl)-1,2,3-oxadiazol-3-ium-5-yl)((3-(2-phenylacetamido)-5-(trifluoromethyl)-phenyl)carbamoyl)amide] | > 20 |
| O=C(Cc1ccccc1)Nc1cc(NC(=O)[N-]c2c[n+](Cc3ccc(CO)cn3)no2)cc(C2CC2)c1 [Example 129, ((3-Cyclopropyl-5-(2-phenylacetamido)phenyl)-carbamoyl)(3-((5-(hydroxymethyl)pyridin-2-yl)methyl)-1,2,3-oxadiazol-3-ium-5-yl)amide] | 1 to 20 |
| COC(=O)c1ccc(C[n+]2cc([N-]C(=O)Nc3cc(NC(=O)Cc4ccccc4)cc(C4CC4)c3)on2)nc1 [Example 128, ((3-Cyclopropyl-5-(2-phenylacetamido)phenyl)-carbamoyl)(3-((5-(methoxycarbonyl)pyridin-2-yl)methyl)-1,2,3-oxadiazol-3-ium-5-yl)amide] | 1 to 20 |
| O=C(Cc1ccccc1)Nc1cc(NC(=O)[N-]c2c[n+](CC3CCCCN3)no2)cc(C(F)(F)F)c1 (centres unmarked) [Example 125, ((3-(2-Phenylacetamido)-5-(trifluoromethyl)-phenyl)carbamoyl)(3-(piperidin-2-ylmethyl)-1,2,3-oxadiazol-3-ium-5-yl)amide] | 1 to 20 |
| NCc1ccc(C[n+]2cc([N-]C(=O)Nc3cc(NC(=O)Cc4ccccc4)cc(C(F)(F)F)c3)on2)cc1 [Example 56, (3-(4-(Aminomethyl)benzyl)-1,2,3-oxadiazol-3-ium-5-yl)((3-(2-phenylacetamido)-5-(trifluoromethyl)phenyl)carbamoyl)amide] | 1 to 20 |
| O=C(Cc1ccccc1)Nc1cc(NC(=O)[N-]c2c[n+](Cc3ccc(CO)cn3)no2)cc(C(F)(F)F)c1 [Example 116, (3-((5-(Hydroxymethyl)pyridin-2-yl)methyl)-1,2,3-oxadiazol-3-ium-5-yl)((3-(2-phenylacetamido)-5-(trifluoromethyl)phenyl)carbamoyl)amide] | 1 to 20 |
| O=C([N-]c1c[n+](Cc2ccccn2)no1)Nc1cc(N2CC(c3ccccc3)CC2=O)cc(C(F)(F)F)c1 (centres unmarked) [Example 122, ((3-(2-Oxo-4-phenylpyrrolidin-1-yl)-5-(trifluoromethyl)phenyl)carbamoyl)(3-(pyridin-2-ylmethyl)-1,2,3-oxadiazol-3-ium-5-yl)amide] | 1 to 20 |
| CC(c1ccc(C(=O)Nc2cc(NC(=O)[N-]c3c[n+](Cc4ccccn4)no3)cc(C(F)(F)F)c2)cc1)S(N)(=O)=O (centres unmarked) [Example 78, (3-(Pyridin-2-ylmethyl)-1,2,3-oxadiazol-3-ium-5-yl)((3-(4-(1-sulfamoylethyl)-benzamido)-5-(trifluoromethyl)phenyl)carbamoyl)amide] | > 20 |
| Cc1nc(N)ncc1-c1ccc(C[n+]2cc([N-]C(=O)Nc3cc(NC(=O)Cc4ccccc4)cc(C(F)(F)F)c3)on2)nc1 [Example 25, (3-((5-(2-Amino-4-methylpyrimidin-5-yl)pyridin-2-yl)methyl)-1,2,3-oxadiazol-3-ium-5-yl)((3-(2-phenylacetamido)-5-(trifluoromethyl)phenyl)carbamoyl)amide] | 1 to 20 |
| O=C(Cc1cccc2cn[nH]c12)Nc1cc(NC(=O)[N-]c2c[n+](Cc3ccccn3)no2)cc(C(F)(F)F)c1 [Example 126, ((3-(2-(1H-Indazol-7-yl)acetamido)-5-(trifluoromethyl)phenyl)carbamoyl)(3-(pyridin-2-ylmethyl)-1,2,3-oxadiazol-3-ium-5-yl)amide] | > 20 |
| NC(=O)c1ccc(C[n+]2cc([N-]C(=O)Nc3cc(NC(=O)Cc4ccccc4)cc(C(F)(F)F)c3)on2)cc1 [Example 104, (3-(4-Carbamoylbenzyl)-1,2,3-oxadiazol-3-ium-5-yl)((3-(2-phenylacetamido)-5-(trifluoromethyl)phenyl)carbamoyl)amide] | 1 to 20 |
| O=C(Cc1ccccc1)Nc1cc(Cl)cc(NC(=O)[N-]c2c[n+](Cc3ccccn3)no2)c1 [Example 58, ((3-Chloro-5-(2-phenylacetamido)phenyl)carbamoyl)(3-(pyridin-2-ylmethyl)-1,2,3-oxadiazol-3-ium-5-yl)amide] | 1 to 20 |
| NC1C2COCC1CC([n+]1cc([N-]C(=O)Nc3cc(NC(=O)Cc4ccccc4)cc(C(F)(F)F)c3)on1)C2 (centres unmarked) [Example 112, (3-(9-Amino-3-oxabicyclo[3.3.1]nonan-7-yl)-1,2,3-oxadiazol-3-ium-5-yl)((3-(2-phenylacetamido)-5-(trifluoromethyl)phenyl)carbamoyl)amide] | > 20 |
| O=C(Cc1ccccc1)Nc1cc(NC(=O)[N-]c2c[n+](Cc3ccccn3)no2)cc(C2CC2)c1 [Example 89, ((3-Cyclopropyl-5-(2-phenylacetamido)phenyl)carbamoyl)(3-(pyridin-2-ylmethyl)-1,2,3-oxadiazol-3-ium-5-yl)amide] | 1 to 20 |
| O=C([N-]c1c[n+](Cc2ccccn2)no1)Nc1cc(NC(=O)c2ccc3[nH]cnc3c2)cc(C(F)(F)F)c1 [Example 29, ((3-(1H Benzo[d]imidazole-5-carboxamido)-5-(trifluoromethyl)phenyl)-carbamoyl)(3-(pyridin-2-ylmethyl)-1,2,3-oxadiazol-3-ium-5-yl)amide] | 1 to 20 |
| NCc1cccc(C[n+]2cc([N-]C(=O)Nc3cc(NC(=O)Cc4ccccc4)cc(C(F)(F)F)c3)on2)c1 [Example 108, (3-(3-(Aminomethyl)benzyl)-1,2,3-oxadiazol-3-ium-5-yl)((3-(2-phenylacetamido)-5-(trifluoromethyl)phenyl)carbamoyl)amide] | 1 to 20 |
| CCOC(=O)CN1CCC(C[n+]2cc([N-]C(=O)Nc3cc(NC(=O)Cc4ccccc4)cc(C(F)(F)F)c3)on2)CC1 [Example 140, (3-((1-(2-Ethoxy-2-oxoethyl)piperidin-4-yl)methyl)-1,2,3-oxadiazol-3-ium-5-yl)((3-(2-phenylacetamido)-5-(trifluoromethyl)phenyl)-carbamoyl)amide] | 0.1 to 1 |
